Patent US20140196172A1, “Organelle Targeting Nanocarriers” (Her Majesty the Queen in Right of Canada, as Repre sented …, priority 2011, published 2014)

What was measured:
[1] = test system: mitochondria of triticale protoplasts; experiment: qRT-PCR of gfp mRNA, protoplasts transfected with pWMaadA16GFP; type: cell-based; conditions: gfp reporter construct
From the text: FIG. 19 is a plot showing the level of expression (fold increase, average of 4 replicates) of GFP in triticale protoplasts transfected with the pWMaadA16GFP plasmid in the presence of mTP1 (SEQ ID NO: 1), mTP2 (SEQ ID NO: 2), mTP3 (SEQ ID NO: 3), mTP4 (SEQ ID NO: 4) or mTP5 (SEQ ID NO: 5) compared to the level of expression (fold increase) of the internal control elongation factor 1a (EF1a), as measured by quantitative real time PCR of mRNA levels; and
Wheat mitochondrial aadA16GFP reporter plasmid (pWMaadA16GFP, FIG. 11) is a 4587 base pair wheat specific mitochondrial transformation vector, which targets insertions into the fourth repeat region between the trnfM and rm18 gene cluster which is repeated three times in the Triticum aestivum mitochondrial genome. The insertion site is in the Triticum aestivum mitochondrial genome at nucleotides 300805-300878 and 300880-302834 (GenBank accession No. AP008982.1). A multiple cloning site is introduced following the tmfM target insertion sequence. The selection marker gene is an organelle codon specific aad-gfp fusion gene, which facilitates a dual selection method of spectinomycin resistance through an aadA derivative and visual detection by GFP fluorescence (GenBank accession No. ABX39486; Khan and Maliga, Nat. Biotechnol. (1999 September) 17(9): 910-5). The selection marker gene is driven by the Triticum aestivum mitochondrial atpA gene promoter (GenBank accession No. X54387.1). The aad-gfp fusion gene is terminated with the TpsbA terminator sequence derived from the Triticum aestivum mitochondrial genome at nucleotides 62871-62565 (GenBank accession No. AP008982.1).
The dsDNA construct (pWMaadA16GFP for mitochondrial expression or pWCaadA16GFP for expression in chloroplasts) is combined with the mTP (for mitochondrial expression) or cTP (for expression in chloroplasts) in a final volume of 100 μl of CPW solution. For experiments using mTP1 (SEQ ID NO: 1), mTP2 (SEQ ID NO: 2), mTP3 (SEQ ID NO: 3), or mTP5 (SEQ ID NO: 5), peptides (scaled up from 100 ng, at four times the concentration needed to cause a DNA shift in the gel mobility shift assay (Table 7)) are combined with the pWMaadA16GFP construct (5 μg). For experiments using the remaining oTPs, peptides (30 μg) are combined with the appropriate dsDNA construct (1.5 μg). The mixture is incubated for 10 minutes at room temperature, then incubated with isolated triticale mesophyll protoplasts (500 μl, 10^6 protoplasts/ml, prepared as described in Example 2) for 1 h in the dark at room temperature. CPW solution (500 μl) is added and the mixture is incubated in the dark for 24 h. The cells are imaged using confocal microscopy, as described in Example 2, using MitoTracker® Orange staining to visualize mitochondria and chlorophyll autofluorescence to visualize chloroplasts.
cDNA is generated using a First Strand Synthesis kit (Invitrogen). RNA (1 μg) is added to each sample and the manufacturer's protocol for synthesis followed, with the exception that the volume of the reaction mixture is increased from 20 μl to 30 μl. A negRT sample containing all reagents but no RNA is included in the cDNA synthesis as a negative control.
Standard curves are generated for both elongation factor 1a (EF1a) (internal control) and green fluorescent protein (GFP) (test) genes. […]
Real time PCR reactions are performed using QuantiTect™ SYBR™ Green PCR Master Mix (Qiagen) in a 20 μl reaction volume. […]

[2] = test system: MDCK (Madin-Darby canine kidney) cells; experiment: Incubation of MDCK cells with fluorescently labeled peptides, confocal microscopy; type: cell-based; conditions: fluorescein-labelled peptide, 1 h, MitoTracker Orange
Procedure: MDCK cells are cultured in Dulbecco's Modified Eagle Medium (DMEM) containing 5% (v/v) fetal bovine serum (FBS) and 1% (v/v) penicillin/streptomycin at 37° C. in a humidified atmosphere containing 5% CO2. The cells grown on 10-cm dishes are detached with trypsin and ethylenediaminetetraacetic acid (EDTA) and washed with DMEM/FBS. Cells used for microscopy are prepared by adding 100 000 cells to the apical chamber of 12-mm diameter Transwell™ permeable supports (Costar, Cambridge, Mass.). Cells are cultured in DMEM/FBS for 3-5 days.
MDCK cells cultured in apical chambers of 12-mm diameter Transwell™ permeable supports are incubated with 80 μl fluoresceinated mTPs or cTPs (100 μM) and 320 μl of Dulbecco's Modified Eagle Medium (DMEM) for 1 h in the dark at room temperature, followed by washing with 400 μl of DMEM.
Cells are observed using a confocal microscope (Nikon C1, Nikon Canada Inc. or Olympus FluoView™) to analyse the localization of the fluoresceinated mTPs or cTPs (excitation wavelength 490 nm/emission wavelength 520 nm). Chloroplasts are identified by autofluorescence. The fluorescent dye MitoTracker® Orange CM-H2TMRos (M7511, Invitrogen) is used to stain mitochondria (excitation wavelength 554 nm/emission wavelength 576 nm). Fluorescence emissions are collected in z-confocal planes of […] and analyzed using EZ-C1 Software Version 3.6 (Nikon) or Olympus FluoView™ software version 2.0b (Olympus).

[3] = test system: linearized plasmid DNA (linear double stranded DNA, 6.8 kb); experiment: Gel mobility shift assay; type: binding; conditions: minimum peptide needed for complete shift of 100 ng plasmid DNA; — = no shift up to highest ratio tested
Procedure: The ten non-labelled oTP sequences identified as having both cell penetrating and organelle targeting properties (Tables 3 and 4) were tested, using a gel mobility shift assay and a nuclease protection assay, for their ability to bind non-covalently to nucleic acids.
The gel mobility shift assay is used to determine the minimum peptide concentration needed to bind to plasmid DNA and cause it to shift during electrophoresis. Purified linearized plasmid DNA (100 ng of linear double stranded DNA, 6.8 kb) is mixed with increasing concentrations of each of the ten oTPs listed in Tables 3 and 4, according to calculated increasing peptide:DNA charge ratios (1:1, 2:1, 3:1, 4:1, 5:1, etc.) until a complete shift is observed in the plasmid DNA during electrophoresis. The DNA is prepared to a final concentration of a 100 ng/μl in sterile water. Each reaction has a final volume of 25 μl and is incubated for 30 min for complex formation and subjected to electrophoresis on 1% agarose gel stained with ethidium bromide.

| Sequence | GFP expression by mitochondria confirmed by qRT-PCR [1] | Mitochondrial targeting [2] | Peptide:DNA Ratio, Molar Binding Ratio [3] |
| --- | --- | --- | --- |
| MWWRRSRTNSLRYT (listed as Arabidopsis thaliana) [mTP4] | GFP is expressed | non-specific mitochondrial localization | – |
| MLFRLRRSVRLRGLLA (listed as Arabidopsis thaliana) [mTP5] | GFP is expressed | Specific mitochondrial targeting | 114.29 |
| MAAWMRSLFSPLKKLWIRMH (Zea mays) [mTP2] | GFP is expressed | non-specific mitochondrial localization | 167.39 |
| MFSYLPRYPLRAASARALVRATRPSYRSALLRYQ (listed as Triticum aestivum) [mTP1] | GFP is expressed | Specific mitochondrial targeting | 264.14 |
| MKLLWRLILSRKW (listed as Arabidopsis thaliana) [mTP3] | GFP is expressed | Specific mitochondrial targeting | 71.39 |
